# Laboratory results taken from patent US20250296961A1, “ANTIMICROBIAL PEPTIDES FOR REMINERALIZATION OF TEETH AND PREVENTION OF DENTAL CARIES” (The University of Hong Kong, priority 2021, published 2025).
# Read-outs that look alike come from different tables or passages of the source. No end group written: not given here.
# Experiments:
# S. mutans = system: S. mutans; parameters: species or system Sprague-Dawley rats; conditions: rat, in vivo
# Experimental: The rat caries model was conducted under the protocol approved by the Ethics Committee of Anhui Medical University, China (ref. no. LLSC20232002) in accordance with national and international guidelines to minimise animal suffering. Ten male specific pathogen-free Sprague-Dawley rats aged 6 weeks were selected. The rats were provided with appropriate antibiotics (ampicillin, chloramphenicol, and carbencillin 1.0 g/kg/day) in the drinking water for 3 days. […] The infection was confirmed by oral swabbing and culturing on mitis salivarius-bacitracin (MSB) agar plates. The infected animals were randomly assigned into two groups (N=10): 16 μM mL^−1 of 8DSS-C8-P-113 in 10 mM HEPES (pH=7, n=5) and 10 mM HEPES (n=5, control group). Animals in each group were treated with 150 μL of the respective treatment topically using dental bonding brush for 2 min once daily for 4 weeks. […] The severity of caries was evaluated by the Keyes' scoring system which categorizes caries as enamel only (E), dentin exposed ¼ to ¾ (Ds), or more than ¾ dentin affected (Dm). The rats' weights were recorded to monitor for signs of toxicity. Additionally, various tissues from gingiva, palate, heart, liver, spleen, lung, and kidney were collected, stained with hematoxylin and eosin (H&E), and histopathologically analysed.
# [1] = Stability of 8DSS-C8-P-113 hydrogel on tooth surface in flow water (BCA); type: physicochemical; conditions: 16 μM mL^−1, flow water 30 mL h-1, 2 h
# Experimental: 20 μL of 16 μM mL^−1 solution of 8DSS-C8-P-113 was applied to the tooth surface (N=5), and self-formed a layer of hydrogel sticking to the bottom of a hand-made instrument (FIG. 2J). To simulate the average human salivary flow rate, a stable flow of deionized water at a rate of 30 mL h-1 was provided using a Syringe Pump (LSP02-1B Double Channel inject/extract, China). The drained liquid, approximately 15 mL, was collected every 30 min. A sample of 100 μL of 16 μM mL^−1 solution of 8DSS-C8-P-113 was added to 15 mL of deionized water to serve as the 0 min sample. After 2 h, the drained liquids collected at 30 min, 60 min, 90 min, and 120 min were tested for their concentrations using Pierce BCA Protein Assay Kit (Rockford, IL).
# [2] = for Peptide concentration incubated in human saliva: 37° C.
# Experimental: (§1) The collected saliva samples were centrifuged at 12,000 rpm for 20 min^21]. The supernatant was filtered to remove any debris. […] At 0, 0.5, 1, 2, 4, and 6 h, 40 uL solutions were taken from each sample and were analysed by High Performance Liquid Chromatography (HPLC-UV, 1525 Binary HPLC Pump, 2489 UV/Visible Detector, Waters, USA).
# in vitro = conditions: human, human saliva (centrifuged, filtered supernatant)
# Experimental: as §1
# Experimental for MC3T3-E1 cells: Cells exposed to α-MEM without peptide was the control group. Cells viability after peptide exposure was evaluated by cell survival rate using Cell Counting Kit-8 assay (CCK-8 assay, Sigma-Aldrich, St. Louis, USA).
sequence,measurement,setting,value
DSSDSSDSSDSSDSSDSSDSSDSSTFFRLFNRAKRHHGYKRKFH [8DSS-C8-P-113],Histopathology analysis (H&E),S. mutans,"No signs of inflammatory reaction, proliferative changes, or necrosis"
same,Hydrogel remaining on the tooth surface (of initial status),[1],over 80%
same,Hydrogel remaining on the tooth surface (of initial status),[1]; listed as 8DSS-C8-P-113 hydrogel,approximately 82.15%
same,Peptide concentration incubated in human saliva,[2]; 0 h,1 mg/mL
same,Peptide concentration incubated in human saliva,[2]; 0.5 h,0.9942 mg/mL
same,Peptide concentration incubated in human saliva,[2]; 1 h,0.987 mg/mL
same,Peptide concentration incubated in human saliva,[2]; 2 h,0.9885 mg/mL
same,Peptide concentration incubated in human saliva,[2]; 4 h,0.8991 mg/mL
same,Peptide concentration incubated in human saliva,[2]; 6 h,0.894 mg/mL
same,Stability,[2]; summary grade,+++
same,"remaining at 6 h, 1 mg mL^−1",in vitro,89.4%
same,Cytocompatibility,MC3T3-E1 cells,++
